Read-outs that look alike come from different tables or passages of the source.
Tests used:
LoVo Colon cell line = test: Cytotoxicity assay using LoVo colon cell line, SRB; assay type: cell-based; settings: read-out: Inhibition of LoVo
Method in brief: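 LoVo cells (4000/well, RPMI 1640 with 10% FBS, 37 °C, 7% CO2) seeded overnight, then exposed 4 days to serial dilutions spanning 5 pM-20 μM or 170 pg/ml-10 μg/ml. Survival by SRB staining; IC50 from curves relative to untreated controls.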

[1] = test system: 80S14 (p21-deficient) cells; test: Cytotoxicity assay using isogenic cell lines: IC50 in 80S14 (p21-deficient) cells, SRB; assay type: cell-based, human
Method in brief: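 80S14 (p21-deficient) cells seeded at 12,000 cells/well overnight, then exposed 5 days at 37 °C to serial dilutions (5 pM–50 μM or 170 pg/ml–10 μg/ml). TCA-fixed, sulforhodamine B-stained, absorbance at 560 nm; IC50 taken from cytotoxicity curves versus untreated controls.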

[2] = Homo sapiens, 96 h, Cellular activity in LoVo cell, 4 days incubation, SRB
[3] = Homo sapiens, 120 h, 80S14 (p21-deficient) cells, 5 days, SRB, class symbols, read-out: IC50 for 80S14
[4] = Homo sapiens, 96 h, LoVo colon cells, 4 days incubation, SRB
[5] = Homo sapiens, 120 h, 80S14 p21-deficient cells, 5 days incubation, SRB, read-out: IC50 for 80SI4
[6] = Cellular activity in LoVo cell, 4 days incubation, SRB
[7] = 80S14 (p21-deficient) cells, 5 days, SRB, class symbols, read-out: IC50 for 80S14

Compound	IC50 (LoVo Colon cell line; [2]) [nM]	IC50 [1, 3] [µM]	other results
O=C(Nc1cccc(-c2ccnc3c(C(=O)c4cccs4)cnn23)c1)c1c(Cl)cccc1Cl [Example 384, 2,6-Dichloro-N-{3-[3-(thien-2-ylcarbonyl)pyrazolo[1,5-a]pyrimidin-7-yl]phenyl}benzamide]	100 to 1000	1 to 10	
O=C(Nc1cccc(-c2ccnc3c(C(=O)c4cccs4)cnn23)c1)NC1CCCCC1 [Example 3, N-cyclohexyl-N′-{3-[3-(thien-2-ylcarbonyl)pyrazolo[1,5-a]pyrimidin-7-yl]phenyl}urea]			IC50 (LoVo Colon cell line; [4]): < 100 nM; IC50 [1, 5]: < 1 µM
O=C(Nc1cccc(-c2ccnc3c(C(=O)c4cccs4)cnn23)c1)OC1CCCCC1 [Example 172, cyclohexyl 3-(3-(thien-2-ylcarbonyl)pyrazolo[1,5-a]pyrimidin-7-yl]phenylcarbamate]			IC50 (LoVo Colon cell line; [4]): < 100 nM; IC50 [1, 5]: < 1 µM
CC(C)CC(=O)Nc1cccc(-c2ccnc3c(-c4cc(Cl)cc(Cl)c4)cnn23)c1 [Example 475, N-{3-[3-(3,5-Dichlorophenyl)pyrazolo[1,5-a]pyrimidin-7-yl]phenyl}-3-methylbutanamide]	1000 to 20000	1 to 10	
CCCCNc1cccc(-c2ccnc3c(C(=O)c4cccs4)cnn23)c1 [Example 380, {7-[3-(Butylamino)phenyl]pyrazolo[1,5-a]pyrimidin-3-yl}(thien-2-yl)methanone]	< 100	< 1	
O=C(c1cccs1)c1cnn2c(-c3cccc(NCC4CC=CCC4)c3)ccnc12 (stereo not shown) [Example 436, (7-{3-[(cyclohex-3-en-1-ylmethyl)amino]phenyl}pyrazolo[1,5-a]pyrimidin-3-yl)-(thien-2-yl)-methanone]	< 100	< 1	
Cc1ccccc1C(=O)Nc1cccc(-c2ccnc3c(C(=O)c4cccs4)cnn23)c1 [Example 94, 2-methyl-N-{3-[3-(thien-2-ylcarbonyl)pyrazolo[1,5-a]pyrimidin-7-yl]phenyl}benzamide]			IC50 (LoVo Colon cell line; [4]): < 100 nM; IC50 [1, 5]: < 1 µM
Cc1cc(C)cc(-c2cnn3c(-c4cccc(-c5nnn(CCN6CCOCC6)n5)c4)ccnc23)c1 [Example 493, 3-(3,5-Dimethylphenyl)-7-{3-[2-(2-morpholin-4-ylethyl)72H-tetraazol-5-yl]phenyl}pyrazolo[1,5-a]pyrimidine]			IC50 (LoVo Colon cell line; [6]): 100 to 1000 nM; IC50 [1, 7]: 1 to 10 µM
CC(C)CC(=O)Nc1cccc(-c2ccnc3c(-c4ccc(CO)cc4)cnn23)c1 [Example 469, N-(3-{3-[4-(Hydroxymethyl)phenyl]pyrazolo[1,5-a]pyrimidin-7-yl}phenyl)-3-methylbutanamide]	1000 to 20000	10 to 50	
(7-{3-[1-(Pyridin-2-ylmethyl)-1H-pyrazol-3-yl]phenyl}pyrazolo[1,5-a]pyrimidin-3-yl)(thien-2-yl)methanone [Example 516]			IC50 (LoVo Colon cell line; [6]): < 100 nM; IC50 [1, 7]: < 1 µM
O=C(c1cccs1)c1cnn2c(-c3cccc(-c4nnn(Cc5ccncc5)n4)c3)ccnc12 [Example 510, (7-{3-[2-(Pyridin-4-ylmethyl)-2H-tetraazol-5-yl]phenyl}pyrazolo[1,5-a]pyrimidin-3-yl)(thien-2-yl)methanone]	< 100	< 1	
O=C(Nc1cccc(-c2ccnc3c(C(=O)c4cccs4)cnn23)c1)OCC1CCCCC1 [Example 175, cyclohexylmethyl 3-[3-(thien-2-ylcarbonyl)pyrazolo[1,5-a]pyrimidin-7-yl]phenylcarbamate]			IC50 (LoVo Colon cell line; [4]): < 100 nM; IC50 [1, 5]: < 1 µM
Cc1cc(-c2cccc(NC(=O)C3CCCC3)c2)n2ncc(C(=O)c3cccs3)c2n1 [Example 204, N-{3-[5-methyl-3-(thien-2-ylcarbonyl)pyrazolo[1,5-a]pyrimidin-7-yl]phenyl}cyclopentanecarboxamide]			IC50 (LoVo Colon cell line; [4]): 100 to 1000 nM; IC50 [1, 5]: < 1 µM
CC(C)OC(=O)Nc1cccc(-c2ccnc3c(C(=O)c4ccsc4)cnn23)c1 [Example 293, Isopropyl 3-[3-(3-thienylcarbonyl)pyrazolo[1,5-a]pyrimidin-7-yl]phenylcarbamate]			IC50 (LoVo Colon cell line; Homo sapiens, LoVo, 96 h): < 100 nM; IC50 ([1]; Homo sapiens, 80S14, 120 h, read-out: IC50 for 80S14 (uM)): < 1 µM
CCCCC(CC)CNc1cccc(-c2ccnc3c(C(=O)c4cccs4)cnn23)c1 (stereo not shown) [Example 419, (7-{3-[(2-Ethylhexyl)amino]phenyl}pyrazolo[1,5-a]pyrimidin-3-yl)(thien-2-yl)methanone]	1000 to 20000	1 to 10	
O=C(O)CCc1ccc(-c2cccc(-c3ccnc4c(C(=O)c5cccs5)cnn34)c2)cc1 [Example 457, 3-{3′-[3-(Thien-2-ylcarbonyl)pyrazolo[1,5-a]pyrimidin-7-yl]-1,1′-biphenyl-4-yl}propanoic acid]	100 to 1000	10 to 50	

Compound	IC50 (LoVo Colon cell line; [2]) [nM]	IC50 [1, 3] [µM]	other results
O=C(Nc1cccc(-c2ccnc3c(C(=O)c4cccs4)cnn23)c1)c1ccccn1 [Example 360, N-{3-[3-(Thien-2-ylcarbonyl)pyrazolo[1,5-a]pyrimidin-7-yl]phenyl}pyridine-2-carboxamide]	< 100	< 1	
CCCCOC(=O)Nc1cccc(-c2cc(C)nc3c(C(=O)c4cccs4)cnn23)c1 [Example 195, butyl 3-[5-methyl-3-(thien-2-ylcarbonyl)pyrazolo[1,5-a]pyrimidin-7-yl]phenylcarbamate]			IC50 (LoVo Colon cell line; [4]): < 100 nM; IC50 [1, 5]: < 1 µM
Cc1cc(-c2cccc(NC(=O)OC(C)C)c2)n2ncc(C(=O)c3cccs3)c2n1 [Example 197, isopropyl 3-[5-methyl-3-(thien-2-ylcarbonyl)pyrazolo[1,5-a]pyrimidin-7-yl]phenylcarbamate]			IC50 (LoVo Colon cell line; [4]): < 100 nM; IC50 [1, 5]: < 1 µM
O=C(Nc1cccc(-c2ccnc3c(C(=O)c4cccs4)cnn23)c1)c1ccc(-n2cccc2)cc1 [Example 383, 4-(1H-pyrrol-1-yl)-N-{3-[3-(thien-2-ylcarbonyl)pyrazolo[1,5-a]pyrimidin-7-yl]phenyl}benzamide]	100 to 1000	1 to 10	
O=C(c1cccs1)c1cnn2c(-c3cccc(-c4nnn(CCO)n4)c3)ccnc12 [Example 513, (7-{3-[2-(2-Hydroxyethyl)-2H-tetraazol-5-yl]phenyl}pyrazolo[1,5-a]pyrimidin-3-yl)(thien-2-yl)methanone]	100 to 1000	1 to 10	
COc1ccccc1CNc1cccc(-c2ccnc3c(C(=O)c4cccs4)cnn23)c1 [Example 363, (7-{3-[(2-Methoxybenzyl)amino]phenyl}pyrazolo[1,5-a]pyrimidin-3-yl)(thien-2-yl)methanone]	100 to 1000	10 to 50	
CCC(C)C(C)CNc1cccc(-c2ccnc3c(C(=O)c4cccs4)cnn23)c1 (stereo not shown) [Example 430, (7-{3-[(2,3-Dimethylpentyl)amino]phenyl}pyrazolo[1,5-a]pyrimidin-3-yl)(thien-2-yl)methanone]	100 to 1000	1 to 10	
O=C(CCCCl)Nc1cccc(-c2ccnc3c(C(=O)c4cccs4)cnn23)c1 [Example 346, 4-Chloro-N-{3-[3-(thien-2-ylcarbonyl)pyrazolo[1,5-a]pyrimidin-7-yl]phenyl}butanamide]	100 to 1000	1 to 10	
O=C(Nc1cccc(-c2ccnc3c(C(=O)c4cccs4)cnn23)c1)OCCCl [Example 22]			IC50 (LoVo Colon cell line; LoVo colon cells, 4 days incubation, SRB): < 100 nM; IC50 ([1]; 80S14 p21-deficient cells, 5 days incubation, SRB, read-out: IC50 for 80SI4): < 1 µM
CC(C)OC(=O)Nc1ccc(-c2ccnc3c(C(=O)c4cccs4)cnn23)s1 [Example 344, Isopropyl 5-[3-(thien-2-ylcarbonyl)pyrazolo[1,5-a]pyrimidin-7-yl]thien-2-ylcarbamate]	1000 to 20000	1 to 10	
O=C(Nc1cccc(-c2ccnc3c(C(=O)c4cccs4)cnn23)c1)c1ccccc1C(F)(F)F [Example 96, N-{3-[3-(thien-2-ylcarbonyl)pyrazolo[1,5-a]pyrimidin-7-yl]phenyl}-2-(trifluoromethyl)benzamide]			IC50 (LoVo Colon cell line; [4]): < 100 nM; IC50 [1, 5]: < 1 µM
CC(C)CC(=O)Nc1cccc(-c2ccnc3c(-c4cccc(C#N)c4)cnn23)c1 [Example 482, N-{3-[3-(3-Cyanophenyl)pyrazolo[1,5-a]pyrimidin-7-yl]phenyl}-3-methylbutanamide]	1000 to 20000	10 to 50	
CC(C)CC(=O)Nc1cccc(-c2ccnc3c(-c4cccc(C(F)(F)F)c4)cnn23)c1 [Example 477, 3-Methyl-N-(3-{3-[3-(trifluoromethyl)phenyl]pyrazolo[1,5-a]pyrimidin-7-yl}phenyl)butanamide]	1000 to 20000	10 to 50	
O=C(CC1CC1)Nc1cccc(-c2ccnc3c(C(=O)c4cccs4)cnn23)c1 [Example 72, 2-cyclopropyl-N-{3-[3-(thien-2-ylcarbonyl)pyrazolo[1,5-a]pyrimidin-7-yl]phenyl}acetamide]			IC50 (LoVo Colon cell line; [4]): 100 to 1000 nM; IC50 [1, 5]: < 1 µM
CCCC(=O)Nc1cccc(-c2ccnc3c(C(=O)c4cccs4)cnn23)c1 [Example 148, N-{3-[3-(thien-2-ylcarbonyl)pyrazolo[1,5-a]pyrimidin-7-yl]phenyl}butanamide]			IC50 (LoVo Colon cell line; Homo sapiens, LoVo, 96 h): < 100 nM; IC50 ([1]; Homo sapiens, 80S14, 120 h, read-out: IC50 for 80SI4 (uM)): < 1 µM
O=C(CCC(Cl)(Cl)Cl)Nc1cccc(-c2ccnc3c(C(=O)c4cccs4)cnn23)c1 [Example 354, 4,4,4-Trichloro-N-{3-[3-(thien-2-ylcarbonyl)pyrazolo[1,5-a]pyrimidin-7-yl]phenyl}butanamide]	< 100	< 1	

— patent publication US20060063784A1, “Method of using substituted pyrazolo [1,5-a] pyrimidines” (priority 2004, published 2006)
